# Values of other authors, collected in patent publication US20060183897A1, “Biaryl substituted triazoles as sodium channel blockers” (priority 2003, published 2006).
# Tests used:
# [1] = system: rat models of peripheral nerve injury; conditions: intravenous application; concentrations that do not affect general behavior and motor function
# [2] = system: patients with peripheral nerve injury; conditions: continuous infusion; placebo-controlled
# [3] = system: postherpetic neuralgia (PHN); conditions: intravenous
smiles,measurement,setting,value
CCN(CC)CC(=O)Nc1c(C)cccc1C [lidocaine],ectopic activity in the injured nerve,[1],suppress the ectopic activity
same,tactile allodynia,[1],reverse the tactile allodynia
same,pain scores,[2],reduced pain scores
same,pain intensity associated with postherpetic neuralgia,[3],reduced pain intensity
